Patent publication US20250186475A1, “METHODS OF TREATING MEDICAL CONDITIONS USING ISLATRAVIR OR A RELATED COMPOUND” (ROME Therapeutics, Inc., priority 2022, published 2025)

What was measured:
Type in all cases: cell-based
[1] = system: TE-1 cells; experiment: Cancer cell viability assay with 3D cell colonies (CellTiter-Glo), TE-1; settings: Homo sapiens, TE-1, 168 h, 7 days
Experimental: (§1) Ovarian cancer cell line SK-OV-3 cells were cultured in McCoy's 5a media containing 10% FBS. Ovarian cancer cell line OVCAR-8 cells were cultured in RPMI media containing 10% FBS. Additional cancer cell lines were cultured in the following media: • Ovarian cancer SW756 cells—L-15 (100% air)+10% FBS • Esophageal cancer TE-1 cells—RPMI-1640+10% FBS • Esophageal cancer KYSE-410 cells—RPMI-1640+5˜10% FBS • Esophageal cancer KYSE-70 cells—RPMI-1640+10% h.i.FBS. • Pharyngeal cancer FaDu cells—MEM+0.01 mM NEAA+10% FBS
(§2) Cell colony formation was tested using a 3D methylcellulose-based CellTiter-Glo (CTG) viability assay (Cat. No: G7573, Promega). Briefly, cells were inoculated into 96-well plates (at 1,500 cells per well) into a solution of 0.65% methylcellulose in growth media and incubated overnight at 37° C. in 5% CO2. The next day, serially diluted test compound (islatravir) or positive control (cisplatin, Cat. No. 6J015A89, Qilu Pharma) were added at the indicated concentrations, and the cells were incubated for 7 days. On day seven, 100 μL of CTG reagent was added, and the plates were incubated at room temperature for 20 min. Luminescence was read on an Envision Multi Label Reader according to manufacturer's instructions. IC50 values were determined using the following calculation: […]

[2] = system: SW756 cells; experiment: Cancer cell viability assay with 3D cell colonies (CellTiter-Glo), SW756; settings: Homo sapiens, SW756, 168 h, 7 days
Experimental: as §1, §2

[3] = system: THP1-Dual™ KO-TREX1 cells; experiment: CellTiter-Glo cell viability in THP1 TREX1 KO cells; settings: Homo sapiens, 120 h, in the presence of 1 μM 5-aza-2′-deoxycytidine, five days, read-out: CellTiter-Glo inhibition IC50
Experimental: THP1-Dual™ KO-TREX1 cells were purchased from Invivogen (cat #thpd-kotrex). The THP1-Dual™ KO-TREX1 cells were cultured in RPMI 1640, 10% heat-inactivated fetal bovine serum, 25 mM HEPES, 10 μg/mL Blasticidin, and 100 μg/mL Zeocin. THP1-Dual™ KO-TREX1 cells were treated with a dose titration of test compound in the presence of 1 μM 5-aza-2′-deoxycytidine (Sigma, cat #189825). Type 1 Interferon and cell viability were assessed after five days of treatment.
Stock solution of test compound was prepared in DMSO followed by a three-fold dilution in DMSO. Additional 50× dilution was prepared in cell culture media for each dilution. 10 μL of diluted test compound was then added to a 384-well plate.
THP1-Dual™ KO-TREX1 cells were treated with 1 μM 5-aza-2′-deoxycytidine. THP1-Dual™ KO-TREX1 cells (50 μL) were added to each well of the 384-well plate containing test compound titration at 10,000 cells/well. Cells were incubated at 37° C., 5% CO2 in a humidified incubator for five days. […] Luminescence was detected on a plate reader according to manufacturer's instructions. […]
The remaining cells were assessed for cell viability by adding 30 μl of CellTiter-Glo (Promega, G9683) solution to each well, and placed on a shaker for 10 minutes at room temperature. Luminescence was detected on a plate reader, according to manufacturer's instructions. […]

[4] = target: T1, LINE1 reverse transcriptase (Homo sapiens, UniProt O00370); experiment: Stable artificial-intron Cis LINE1 reporter assay (HeLa Tet-On 3G); settings: HeLa L1 reporter cells, doxycycline induced, 72 h; read-out: IC50 for inhibition of FLuc luminescence
T1 construct: expressed in transfected cells
T1 sequence (O00370 whole entry, looked up): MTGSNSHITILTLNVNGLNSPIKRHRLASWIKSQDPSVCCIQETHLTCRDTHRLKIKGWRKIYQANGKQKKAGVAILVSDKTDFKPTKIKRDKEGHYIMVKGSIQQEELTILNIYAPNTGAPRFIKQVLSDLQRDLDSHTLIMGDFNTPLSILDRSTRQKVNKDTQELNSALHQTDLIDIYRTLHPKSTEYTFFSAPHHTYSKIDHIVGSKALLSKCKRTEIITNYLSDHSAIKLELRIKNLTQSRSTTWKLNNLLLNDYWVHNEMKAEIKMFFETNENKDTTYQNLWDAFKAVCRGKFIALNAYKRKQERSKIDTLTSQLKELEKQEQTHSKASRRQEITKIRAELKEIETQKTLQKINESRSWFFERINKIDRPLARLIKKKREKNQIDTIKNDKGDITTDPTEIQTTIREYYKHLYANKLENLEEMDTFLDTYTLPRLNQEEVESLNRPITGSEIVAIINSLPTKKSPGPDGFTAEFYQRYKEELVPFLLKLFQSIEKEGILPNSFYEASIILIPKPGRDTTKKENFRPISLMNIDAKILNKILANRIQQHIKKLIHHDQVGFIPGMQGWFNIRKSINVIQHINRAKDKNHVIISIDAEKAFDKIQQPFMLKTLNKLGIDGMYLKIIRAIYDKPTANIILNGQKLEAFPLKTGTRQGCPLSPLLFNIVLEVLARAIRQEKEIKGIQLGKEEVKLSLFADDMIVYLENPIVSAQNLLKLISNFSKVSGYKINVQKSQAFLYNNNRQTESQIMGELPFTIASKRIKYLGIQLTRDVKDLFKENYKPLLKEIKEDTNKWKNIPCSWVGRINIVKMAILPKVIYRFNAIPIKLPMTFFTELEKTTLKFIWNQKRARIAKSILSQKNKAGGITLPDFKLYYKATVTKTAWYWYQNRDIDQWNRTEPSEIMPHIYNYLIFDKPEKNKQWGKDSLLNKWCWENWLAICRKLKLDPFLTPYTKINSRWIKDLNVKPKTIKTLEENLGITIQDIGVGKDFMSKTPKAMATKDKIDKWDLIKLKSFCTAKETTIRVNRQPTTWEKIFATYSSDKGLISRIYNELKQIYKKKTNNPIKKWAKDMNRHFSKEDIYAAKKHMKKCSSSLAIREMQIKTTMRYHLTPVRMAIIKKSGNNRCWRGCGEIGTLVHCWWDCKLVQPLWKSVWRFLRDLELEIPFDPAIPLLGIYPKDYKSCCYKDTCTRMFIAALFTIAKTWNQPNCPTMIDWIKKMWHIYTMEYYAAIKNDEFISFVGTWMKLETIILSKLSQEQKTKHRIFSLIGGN
Source text: A stable HeLa Tet-On 3G (Takara, cat no 631183) cell line expressing a bi-directional inducible LINE1 construct was generated as described in Xie, Y. et al. “Cell division promotes efficient retrotransposition in a stable L1 reporter cell line,” Mobile DNA (2013) 4:10. Single cell clones were screened for high Luciferase expression and the highest expression Firefly expressing clone was chosen for compound testing.
Test compound was serially diluted in DMSO and spotted in 96-well plates. Subsequently the HeLa L1 artificial-intron reporter cells were plated into the compound-containing wells (8,000 cells/well), and the cells were induced for reporter expression with doxycycline (Sigma cat no D9891) at a final concentration of 500 ng/mL. Luminescence was measured 72 h after plating using the Dual-Glo Luciferase Assay System (Promega cat no E2940) following the manufacturer's instructions. The Firefly Luciferase activity was used to report LINE1 activity.

IC50 [1]: ≤ 10 µM
IC50 [2]: > 30 µM
IC50 [3]: > 20 µM
IC50 [4]: 0.00069 µM
SMILES: C#C[C@]1(CO)O[C@@H](n2cnc3c(N)nc(F)nc32)C[C@@H]1O [Islatravir, (2R,3S,5R)-5-(6-amino-2-fluoro-9H-purin-9-yl)-2-ethynyl-2-(hydroxymethyl)tetrahydrofuran-3-ol]
